Experimental data published in US6713455B2, “6-O-carbamate-11,12-lacto-ketolide antimicrobials” (Ortho-McNeil Pharmaceutical, Inc., priority 2001, dated 2004).
In brackets after ≈: the same amount, converted by molar mass.

How the values were obtained:
Test in all cases: MIC, microdilution broth method (NCCLS)
Format in all cases: cell-based
E. coli OC2605 = details: 35° C., 16-20 hours; for MIC: Escherichia coli
Protocol: (§1) Minimal inhibitory concentration (MIC) has been an indicator of in vitro antibacterial activity widely used in the art. The in vitro antimicrobial activity of the compounds was determined by the microdilution broth method following the test method from the National Committee for Clinical Laboratory Standards (NCCLS). This method is described in the NCCLS Document M7-A4, Vol.17, No.2, “Methods for Dilution Antimicrobial Susceptibility Test for Bacteria that Grow Aerobically—Fourth Edition”, which is incorporated herein by reference.
(§2) In this method two-fold serial dilutions of drug in cation adjusted Mueller-Hinton broth are added to wells in microdilution trays. The test organisms are prepared by adjusting the turbidity of actively growing broth cultures so that the final concentration of test organism after it is added to the wells is approximately 5×10^4 CFU/well.
(§3) Following inoculation of the microdilution trays, the trays are incubated at 35° C. for 16-20 hours and then read. […] The amount of growth in the wells containing the test compound is compared with the amount of growth in the growth-control wells (no test compound) used in each tray. As set forth in Table 1, compounds of the present invention were tested against a variety of Gram positive and Gram negative pathogenic bacteria resulting in a range of activities depending on the organism tested.

E. faecalis ATCC29212 = details: 35° C., 16-20 hours; for MIC: Enterococcus faecalis
Protocol: as §1, §2, §3

H. influenzae ATCC49247 = details: 35° C., 16-20 hours; for MIC: Haemophilus influenzae
Protocol: as §1, §2, §3

S. aureus ATCC29213 = details: 35° C., 16-20 hours; for MIC: Staphylococcus aureus
Protocol: as §1, §2, §3

S. pneumoniae ATCC49619 = details: 35° C., 16-20 hours; for MIC: Streptococcus pneumoniae
Protocol: as §1, §2, §3

Row | Compound | MIC (μg/mL) A (E. coli OC2605) [µg/mL] | MIC (μg/mL) C (E. faecalis ATCC29212) [µg/mL] | MIC (μg/mL) E (H. influenzae ATCC49247) [µg/mL] | MIC (μg/mL) B (S. aureus ATCC29213) [µg/mL] | MIC (μg/mL) D (S. pneumoniae ATCC49619) [µg/mL] | MIC (E. coli OC2605) [µg/mL] | MIC (E. faecalis ATCC29212) [µg/mL] | MIC (H. influenzae ATCC49247) [µg/mL] | MIC (S. aureus ATCC29213) [µg/mL] | MIC (S. pneumoniae ATCC49619) [µg/mL]
1 | CCC1OC(=O)C(C)C(=O)C(C)C(OC2OC(C)CC(N(C)C)C2O)C(C)(OC(N)=O)CC(C)C(=O)C(C)C2CC(=O)OC12C (stereo not shown) [Compound 1] | >16 | 2 (≈ 3.12 µM) | >16 | 8 (≈ 12.5 µM) | 0.5 (≈ 0.78 µM) |  |  |  |  | 
2 | CCC1OC(=O)C(C)C(=O)C(C)C(OC2OC(C)CC(N(C)C)C2O)C(C)(OC(=O)NCc2ccc(-c3cncnc3)cc2)CC(C)C(=O)C(C)C2CC(=O)OC12C (stereo not shown) [Compound 2] | >16 | 0.12 (≈ 0.148 µM) | 16 (≈ 19.8 µM) | 1 (≈ 1.24 µM) | 0.06 (≈ 0.0742 µM) |  |  |  |  | 
3 | CCC1OC(=O)C(C)C(=O)C(C)C(OC2OC(C)CC(N(C)C)C2O)C(C)(OC(=O)NCc2ccc3ncccc3c2)CC(C)C(=O)C(C)C2CC(=O)OC12C (stereo not shown) [Compound 3] | >16 | 0.25 (≈ 0.32 µM) | 8 (≈ 10.2 µM) | 1 (≈ 1.28 µM) | 0.06 (≈ 0.0767 µM) |  |  |  |  | 
4 | CCC1OC(=O)C(C)C(=O)C(C)C(OC2OC(C)CC(N(C)C)C2O)C(C)(OC(=O)NCc2ccc(C(=O)O)cc2)CC(C)C(=O)C(C)C2CC(=O)OC12C (stereo not shown) [Compound 4] | >16 | 8 (≈ 10.3 µM) | >16 | >16 | 1 (≈ 1.29 µM) |  |  |  |  | 
5 | CCC1OC(=O)C(C)C(=O)C(C)C(OC2OC(C)CC(N(C)C)C2O)C(C)(OC(=O)NCC=Cc2cnc3ccccc3c2)CC(C)C(=O)C(C)C2CC(=O)OC12C (stereo not shown) [Compound 5] | 16 (≈ 19.8 µM) | 0.06 (≈ 0.0743 µM) | 16 (≈ 19.8 µM) | 0.5 (≈ 0.619 µM) | 0.03 (≈ 0.0371 µM) |  |  |  |  | 
6 | CCC1OC(=O)C(C)C(=O)C(C)C(OC2OC(C)CC(N(C)C)C2O)C(C)(OC(=O)NCC=Cc2ccc(-c3ccccn3)cc2)CC(C)C(=O)C(C)C2C(OC)C(=O)OC12C (stereo not shown) [Compound 6] | >16 | 1 (≈ 1.16 µM) | 8 (≈ 9.26 µM) | 1 (≈ 1.16 µM) | 0.25 (≈ 0.289 µM) |  |  |  |  | 
7 | CC[C@H]1OC(=O)[C@H](C)C(=O)[C@H](C)[C@@H](OC2O[C@H](C)C[C@H](N(C)C)[C@H]2O)[C@](C)(OC(=O)NC/C=C/c2ccc(-c3ncccn3)cc2)C[C@@H](C)C(=O)C(C)C2CC(=O)O[C@@]21C (stereo partly shown) [Compound 7] |  |  |  |  |  | > 16 | 0.12 (≈ 0.144 µM) | 8 (≈ 9.58 µM) | 0.25 (≈ 0.299 µM) | 0.06 (≈ 0.0719 µM)
8 | CCC1OC(=O)C(C)C(=O)C(C)C(OC2OC(C)CC(N(C)C)C2O)C(C)(OC(=O)NCC=Cc2ccc(-c3cncnc3)cc2)CC(C)C(=O)C(C)C2CC(=O)OC12C (stereo not shown) [Compound 9] | >16 | 0.25 (≈ 0.299 µM) | 8 (≈ 9.58 µM) | 0.5 (≈ 0.599 µM) | 0.06 (≈ 0.0719 µM) |  |  |  |  | 
9 | CCC1OC(=O)C(C)C(=O)C(C)C(OC2OC(C)CC(N(C)C)C2O)C(C)(OC(=O)NCC=Cc2ccc3cccnc3c2)CC(C)C(=O)C(C)C2C(OC)C(=O)OC12C (stereo not shown) [Compound 10] | >16 | 0.5 (≈ 0.597 µM) | 8 (≈ 9.55 µM) | 1 (≈ 1.19 µM) | 0.12 (≈ 0.143 µM) |  |  |  |  | 
10 | CCC1OC(=O)C(C)C(=O)C(C)C(OC2OC(C)CC(N(C)C)C2O)C(C)(OC(=O)NCC=Cc2cncc(-c3ccccn3)c2)CC(C)C(=O)C(C)C2CC(=O)OC12C (stereo not shown) [Compound 11] | >16 | 0.12 (≈ 0.144 µM) | 4 (≈ 4.79 µM) | 0.5 (≈ 0.599 µM) | 0.06 (≈ 0.0719 µM) |  |  |  |  | 
11 | CCC1OC(=O)C(C)C(=O)C(C)C(OC2OC(C)CC(N(C)C)C2O)C(C)(OC(=O)N(CC=Cc2cncc(-c3ccccn3)c2)CC=Cc2cncc(-c3ccccn3)c2)CC(C)C(=O)C(C)C2CC(=O)OC12C (stereo not shown) [Compound 12] | >16 | 0.5 (≈ 0.486 µM) | 16 (≈ 15.5 µM) | 2 (≈ 1.94 µM) | 0.12 (≈ 0.117 µM) |  |  |  |  | 
12 | CCC1OC(=O)C(C)C(=O)C(C)C(OC2OC(C)CC(N(C)C)C2O)C(C)(OC(=O)NCC=Cc2cccc(-c3ccccn3)c2)CC(C)C(=O)C(C)C2CC(=O)OC12C (stereo not shown) [Compound 13] | >16 | 0.25 (≈ 0.3 µM) | 4 (≈ 4.8 µM) | 1 (≈ 1.2 µM) | 0.06 (≈ 0.0719 µM) |  |  |  |  | 
13 | CCC1OC(=O)C(C)C(=O)C(C)C(OC2OC(C)CC(N(C)C)C2O)C(C)(OC(=O)NCC=Cc2cccc(-c3cccnc3)c2)CC(C)C(=O)C(C)C2CC(=O)OC12C (stereo not shown) [Compound 14] | >16 | 0.5 (≈ 0.6 µM) | 8 (≈ 9.59 µM) | 2 (≈ 2.4 µM) | 0.12 (≈ 0.144 µM) |  |  |  |  | 
14 | CCC1OC(=O)C(C)C(=O)C(C)C(OC2OC(C)CC(N(C)C)C2O)C(C)(OC(=O)NCC=Cc2ccc(-c3ccccn3)cc2)CC(C)C(=O)C(C)C2CC(=O)OC12C (stereo not shown) [Compound 15] | >16 | 0.25 (≈ 0.3 µM) | 8 (≈ 9.59 µM) | 1 (≈ 1.2 µM) | 0.12 (≈ 0.144 µM) |  |  |  |  | 
15 | CC[C@H]1OC(=O)[C@H](C)C(=O)[C@H](C)[C@@H](O[C@@H]2O[C@H](C)C[C@H](N(C)C)[C@H]2O)[C@](C)(OC(=O)NC/C=C/c2ccc(-n3cnnc3)cc2)C[C@@H](C)C(=O)C(C)[C@H]2CC(=O)O[C@@]21C (stereo partly shown) [Compound 16] | 16 (≈ 19.4 µM) | 0.25 (≈ 0.303 µM) | 4 (≈ 4.85 µM) | 0.5 (≈ 0.607 µM) | 0.06 (≈ 0.0728 µM) |  |  |  |  | 
16 | CC[C@H]1OC(=O)[C@H](C)C(=O)[C@H](C)[C@@H](OC2O[C@H](C)C[C@H](N(C)C)[C@H]2O)[C@](C)(OC(=O)NC/C=C/c2cn(-c3cnccn3)cn2)C[C@@H](C)C(=O)C(C)C2CC(=O)O[C@@]21C (stereo partly shown) [Compound 17] |  |  |  |  |  | > 16 | 0.12 (≈ 0.145 µM) | 4 (≈ 4.85 µM) | 0.5 (≈ 0.606 µM) | 0.06 (≈ 0.0727 µM)
17 | CCC1OC(=O)C(C)C(=O)C(C)C(OC2OC(C)CC(N(C)C)C2O)C(C)(OC(=O)NCC#Cc2cccnc2)CC(C)C(=O)C(C)C2CC(=O)OC12C (stereo not shown) [Compound 18] | >16 | 0.5 (≈ 0.661 µM) | 8 (≈ 10.6 µM) | 2 (≈ 2.65 µM) | 0.12 (≈ 0.159 µM) |  |  |  |  | 
18 | CCC1OC(=O)C(C)C(=O)C(C)C(OC2OC(C)CC(N(C)C)C2O)C(C)(OC(=O)NCc2ccccc2)CC(C)C(=O)C(C)C2CC(=O)OC12C (stereo not shown) [Compound 19] | >16 | 1 (≈ 1.37 µM) | >16 | 16 (≈ 21.9 µM) | 0.25 (≈ 0.342 µM) |  |  |  |  | 
19 | CCC1OC(=O)C(C)C(=O)C(C)C(OC2OC(C)CC(N(C)C)C2O)C(C)(OC(=O)NCc2ccc(Br)cc2)CC(C)C(=O)C(C)C2CC(=O)OC12C (stereo not shown) [Compound 20] | >16 | 0.5 (≈ 0.617 µM) | 16 (≈ 19.8 µM) | 2 (≈ 2.47 µM) | 0.12 (≈ 0.148 µM) |  |  |  |  | 
20 | CCC1OC(=O)C(C)C(=O)C(C)C(OC2OC(C)CC(N(C)C)C2O)C(C)(OC(=O)NCc2ccc(C=Cc3ccccc3)cc2)CC(C)C(=O)C(C)C2CC(=O)OC12C (stereo not shown) [Compound 21] | >16 | 1 (≈ 1.2 µM) | 8 (≈ 9.6 µM) | 2 (≈ 2.4 µM) | 0.25 (≈ 0.3 µM) |  |  |  |  | 
21 | CCC1OC(=O)C(C)C(=O)C(C)C(OC2OC(C)CC(N(C)C)C2O)C(C)(OC(=O)NCC=Cc2ccc(Br)cc2)CC(C)C(=O)C(C)C2CC(=O)OC12C (stereo not shown) [Compound 22] | 16 (≈ 19.1 µM) | 0.25 (≈ 0.299 µM) | 4 (≈ 4.79 µM) | 1 (≈ 1.2 µM) | 0.06 (≈ 0.0718 µM) |  |  |  |  | 
22 | CCC1OC(=O)C(C)C(=O)C(C)C(OC2OC(C)CC(N(C)C)C2O)C(C)(OC(=O)N(CC=Cc2ccc(Br)cc2)CC=Cc2ccc(Br)cc2)CC(C)C(=O)C(C)C2CC(=O)OC12C (stereo not shown) [Compound 23] | >16 | 2 (≈ 1.94 µM) | >16 | 8 (≈ 7.76 µM) | 2 (≈ 1.94 µM) |  |  |  |  | 
23 | CCC1OC(=O)C(C)C(=O)C(C)C(OC2OC(C)CC(N(C)C)C2O)C(C)(OC(=O)NCc2ccc(-c3ccccn3)cc2)CC(C)C(=O)C(C)C2CC(=O)OC12C (stereo not shown) [Compound 26] | >16 | 0.12 (≈ 0.149 µM) | 8 (≈ 9.9 µM) | 1 (≈ 1.24 µM) | 0.06 (≈ 0.0743 µM) |  |  |  |  | 
24 | CCC1OC(=O)C(C)C(=O)C(C)C(OC2OC(C)CC(N(C)C)C2O)C(C)(OC(=O)NCC=Cc2ccc3ncccc3c2)CC(C)C(=O)C(C)C2CC(=O)OC12C (stereo not shown) [Compound 27] | 16 (≈ 19.8 µM) | 0.06 (≈ 0.0743 µM) | 1 (≈ 1.24 µM) | 0.5 (≈ 0.619 µM) | 0.03 (≈ 0.0371 µM) |  |  |  |  | 
25 | CC[C@H]1OC(=O)[C@H](C)C(=O)[C@H](C)[C@@H](OC2O[C@H](C)C[C@H](N(C)C)[C@H]2O)[C@](C)(OC(=O)NC/C=C/c2cncc3ccccc23)C[C@@H](C)C(=O)C(C)C2CC(=O)O[C@@]21C (stereo partly shown) [Compound 30] |  |  |  |  |  | 16 (≈ 19.8 µM) | 0.12 (≈ 0.149 µM) | 2 (≈ 2.48 µM) | 0.25 (≈ 0.309 µM) | 
